Legend:
SW1116 cells [1] = experiment: Drug-induced apoptosis by FACS analysis (Table 1); format: cell-based, Human; settings: rAAV 1×10^5 viral particle/cell, or followed by 10 μg/ml 5-fluorouracil for 72 hour; mean ± SEM
Protocol: Cells were collected and fixed in ice-cold 70% ethanol in PBS and stored at −20° C. before use. After re-suspension, cells were washed and incubated with 100 μl of RNase I (1 mg/ml) and 100 μl of propidium iodide (400 μg/ml; Sigma) at 37° C. for 30 min. Samples were analyzed by flow cytometry (Coulter, Luton). The cell-cycle phase distribution was calculated from the resultant DNA histogram using Multicycle AV software (Phoenix Flow Systems, San Diego, Calif.). Cells with subdiploid DNA content were scored as apoptotic.

SW1116 cells [2] = experiment: Intratumoral rAAV gene therapy in colon cancer xenograft model: tumor growth; format: in vivo, BALB/c nude mice; settings: rAAV 5×10^10 particles/site, 3 sites; 5-FU i.p. 50 mg/kg on each of 5 days
Protocol: rAAV-Sur-Mut(Cys84Ala) inhibited tumor growth. (A) Untreated SW1116 cell were subcutaneously injected into the right flank of athymic female nude mice. Tumors were allowed to grow to approximately 100-150 mm^3 volume. Masses were injected in three sites with rAAV-Sur-Mut(Cys84Ala), rAAV-eGFP or rAAV-Sur(wt) at 5×10^10 viral particles/site of injection, or with PBS. Photographs were taken from representative mice 4 weeks after treatment. (B) Tumor growth was measured every week after injection. Data are the means±SEM of tumor size per mouse. (C) Tissue sections of formalin-fixed, paraffin-embedded xenograft tumors were stained by H&E, immunohistochemical stained for survivin or TUNEL stained for detection of apoptotic cells. Images were representative fields of view from tumors 5 days after treatment. (Original magnification ×200)
(§1) Five- to six-week-old female BALB/c nude mice were injected subcutaneously on the flanks with 2×10^6 exponentially growing SW1116 cells. Tumors were allowed to grow to 100˜150 mm^3 (5˜7 mm diameter). For local administration of rAAV, masses were injected in three sites with rAAV-Sur-Mut(Cys84Ala), rAAV-Sur(wt) or rAAV-EGFP at 5×10^10 viral particles/site of injection, or at each of the three site with PBS. Alternatively, mice were i.p. injected with 50 mg/kg 5-fluorouracil daily for 5 days, or a combination of rAAV virus and 5-Fluorouracil. Tumor growth was measured weekly after injection. In other experiments, mice received an injection of uninfected exponentially growing 2×10^6 SW1116 cells. After 7 days, mice were given an injection of same dosage of rAAV virus and 5-FU (3 animals/group). After 5 days, animals were euthanized, and their total tumor burden was excised, fixed and embedded in paraffin blocks for H&E, TUNEL and immunohistochemical staining, or tumors were snap-frozen in liquid nitrogen for CD31 staining.

SW1116 cells [3] = experiment: Survival of xenograft-bearing mice; format: in vivo, BALB/c nude mice
Protocol: rAAV-Sur-Mut(Cys84Ala) prolonged the survival of mice. (A) Masses were injected in three sites with rAAV-Sur-Mut(Cys84Ala), rAAV-Sur(wt) and rAAV-eGFP at 5×10^10 viral particles/site of injection, or in combination with 5-Fluorouracil for 5 days. Tumor xenografts were collected and tissue sections of formalin-fixed, paraffin-embedded xenograft were TUNEL stained for apoptosis. (B) Survival curve. The experimental conditions were as in (A) Survival was monitored every day, and tumor volume was measured every week after treatment. Definition of death is natural death due to tumor burden or killing due to tumor sizes (diameter) more than 2.5 cm.
as §1, with “After 7 days, mice were given an injection of same dosage of rAAV virus and 5-FU (3 animals/group). After 5 days, animals were euthanized, and their total tumor burden was excised, fixed and embedded in paraffin blocks for H&E, TUNEL and immunohistochemical staining, or tumors were snap-frozen in liquid nitrogen for CD31 staining.” left out

## O=c1[nH]cc(F)c(=O)[nH]1 [5-FU, 5-fluorouracil]
SW1116 cells [1]
  % Apoptosis: 26.0 ± 3.4%
SW1116 cells [2]
  Number of mice with tumor regression: 0/4
  Rate of inhibition: 61.2%
  Tumor size: 606.3 ± 106.7 mm^3
SW1116 cells [3]; mouse, in vivo
  survival (comparison in words): survived significantly longer than buffer-treated mice
SW1116 cells [3]; tumor-bearing mice
  clinical symptoms: developed severe symptoms related to tumor growth
